Measured values reported in patent publication US20260325469A1, “COMPOSITION FOR ANIMALS” (priority 2023, published 2026).

Columns and labels:
[1] = Example 1.3: feeding experiments, TLA composition via drinking water, feed free from medical zinc, weight gain and diarrhoea; type: in vivo, piglets (day-one weaned); conditions: comparison of AWG ratio with Example 1.2, light diarrhoea environment
Experimental: In Example 1.3, a composition comprising [COMPOUND LEFT OUT] lactic acid, [COMPOUND LEFT OUT] acetic acid and tannic acid was administered to piglets in combination with a feed free from medical zinc.
A batch solution was prepared using [COMPOUND LEFT OUT] lactic acid (80% lactic acid, Frederiksen, DK); acetic acid (5%, Organic Vinegar, Netto, DK) and tannic acid (Sigma) corresponding to a content of 10% Tannic acid, 69% lactic acid and 1.4% acetic acid. This composition is hereafter named TLA stock (tannic acid, lactic acid and acetic acid stock).
Two independent one-week feeding experiments were carried out with day-one weaned piglets (Example 1.3.1 and 1.3.2).
The concentrated TLA stock feed additive was prepared and used to mix with the standard setup for drinking water used by the weaned pigs at the farm. The dry feed is as described above.
The feed received by both the test and control groups was free from medical zinc. In each experiment, two test groups were administered the TLA composition in drinking water while two control groups received standard tap water. The total weight of all piglets in each group was measured at the initiation of the experiment (Day 0, “Start total weight”) and after one (Day 7) and two weeks (Day 14) as indicated (“End total weight”). […]
Following one-week administration, the total weight gain of each group was monitored. […]

[2] = Solubility in concentrated stock solution; type: physicochemical; conditions: concentrated stock solution / acidic solutions
Source text: A concentrated stock solution is required to facilitate administration through drinking water.

[3] = test system: E. coli cells producing F4 fimbriae; assay: Example 4.1: E. coli agglutination test; type: cell-based; conditions: concentrations identical to Example 3.1; OD450 1.5 cells, 5 μL + 5 μL on glass plate
Experimental: The effect of three different compositions on E. coli agglutination were tested: (i) lactic acid and acetic acid, (ii) tannic acid, (iii) lactic acid, acetic acid and tannic acid.
A recombinant E. coli strain constitutively expressing F4 fimbriae was washed three times with 0.9% sodium chloride, and cells corresponding to an optical density (OD450) of 1.5 were resuspended in 50 μL of 0.9% sodium chloride.
5 μL of the cell suspension was mixed with 5 μL of either (i) lactic acid and acetic acid, (ii) tannic acid or (iii) lactic acid, acetic acid and tannic acid on the surface of a glass plate.
The concentration of each of these components were identical to those delivered to the pigs in Example 3.1.

O=C(OC[C@H]1O[C@@H](OC(=O)c2cc(O)c(O)c(OC(=O)c3cc(O)c(O)c(O)c3)c2)[C@H](OC(=O)c2cc(O)c(O)c(OC(=O)c3cc(O)c(O)c(O)c3)c2)[C@@H](OC(=O)c2cc(O)c(O)c(OC(=O)c3cc(O)c(O)c(O)c3)c2)[C@@H]1OC(=O)c1cc(O)c(O)c(OC(=O)c2cc(O)c(O)c(O)c2)c1)c1cc(O)c(O)c(OC(=O)c2cc(O)c(O)c(O)c2)c1 [tannic acid, 1,2,3,4,6-penta-O-{3,4-dihydroxy-5-[(3,4,5-trihydroxybenzoyl)oxy]benzoyl}-D-glucopyranose]
Contribution of tannic acid to weight increase [1]: additional effect of tannic acid in the increase in weight | Solubility [2]: high solubility in acidic solutions | E. coli agglutination [3]: does not show any significant aggregation of the cells

albumin-tannate [reference compound]
Solubility [2]: problems with solubility, resulting in non-homogeneous solutions comprising a precipitate
